Measurements taken from patent publication US20230271959A1, “HETEROCYCLIC COMPOUND AS BCL-2 INHIBITOR” (Beijing Innocare Pharma Tech Co., Ltd., priority 2020, published 2023).
pIC50: −log10 of the molar value.

Experiments:
[1] = biological target: T1, human recombinant Bcl-2 protein (Homo sapiens, UniProt P10415); test: Fluorescence polarization test for inhibition of BCL-2 binding to FITC-BIM; conditions: 5 nM BCL-2, 5 nM FITC-BIM, read-out: FP BCL-2 IC50
T1 construct: purchased Beijing Yigiao Shenzhou Biotechnology Co., Ltd. 10195-HOSE
T1 sequence (P10415 whole entry): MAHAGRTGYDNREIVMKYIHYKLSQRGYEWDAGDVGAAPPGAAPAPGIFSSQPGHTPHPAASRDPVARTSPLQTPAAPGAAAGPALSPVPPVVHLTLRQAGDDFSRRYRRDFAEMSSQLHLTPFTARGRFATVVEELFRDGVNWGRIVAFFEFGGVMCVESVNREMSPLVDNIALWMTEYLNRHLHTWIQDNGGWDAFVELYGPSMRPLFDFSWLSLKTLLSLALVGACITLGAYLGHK
In short: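 FP competition: compound preincubated 15 min with recombinant human Bcl-2 (diluted to 5 nM), then FITC-BIM (diluted to 5 nM) added for 30 min at room temperature in PBS pH 7.4 with 1 mM DTT. Polarization read at 480/535 nm; IC50 from 8-point 4-fold series fitted by four-parameter equation.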

[2] = biological target: T2, human recombinant Bcl-XL protein (Homo sapiens, UniProt Q07817); test: Fluorescence polarization test for inhibition of BCL-XL binding to FITC-BIM; conditions: 10 nM BCL-XL, 10 nM FITC-BIM, read-out: FP BCL-XL IC50
T2 construct: purchased Beijing Yiqiao Shenzhou Biotechnology Co., Ltd. 10455-H0SE
T2 sequence (Q07817 whole entry): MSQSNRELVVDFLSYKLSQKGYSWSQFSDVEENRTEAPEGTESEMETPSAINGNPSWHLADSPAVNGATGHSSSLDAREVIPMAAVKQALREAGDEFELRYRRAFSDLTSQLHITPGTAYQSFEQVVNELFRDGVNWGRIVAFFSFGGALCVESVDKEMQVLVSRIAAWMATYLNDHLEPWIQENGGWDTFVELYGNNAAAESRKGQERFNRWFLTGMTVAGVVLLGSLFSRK
In short: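 Human recombinant Bcl-XL (10 nM diluted stock) preincubated with compound 15 min at RT in PBS pH 7.4, 1 mM DTT, then FITC-BIM peptide (10 nM diluted stock) added for 30 min in dark. FP read at ex 480/em 535 nm; no-protein wells = 100% inhibition; IC50 from 8-point 4-fold dilution curve fit.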

[3] = test system: RS4;11 cells (acute lymphoblastic leukemia cells); test: RS4;11 cell proliferation, CellTilter-Glo luminescence cell viability assay; assay type: cell-based; conditions: Homo sapiens, RS4-11; CTG readout after 48 hours
In short: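 RS4;11 cells plated overnight were exposed for 48 h at 37 °C, 5% CO2 to an 8-point, 4-fold compound dilution series; the vehicle control contained 0.2% DMSO. Viability was read by CellTiter-Glo luminescence. Percent inhibition was referenced to no-cell and DMSO controls, and IC50 came from a four-parameter sigmoidal fit.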

C[C@@H]1CN(c2ccc(C(=O)NS(=O)(=O)c3cc(F)c(NC[C@H]4COCCO4)c([N+](=O)[O-])c3)c(Oc3cnc4[nH]ccc4c3)c2)CCN1CC1=C(c2ccc(Cl)cc2)CC(C)(C)C(C)(C)C1 [Example 41, N-((4-((((S)-1,4-dioxan-2-yl)methyl)amino)-3-fluoro-5-nitrophenyl)sulfonyl)-2-((1H-pyrrolo[2,3-b]pyridin-5-yl)oxy)-4-((R)-4-((4′-chloro-4,4,5,5-tetramethyl-3,4,5,6-tetrahydro-[1,1′-biphenyl]-2-yl)methyl)-3-methylpiperazin-1-yl)benzamide]
pIC50 [1]: 8.89
pIC50 [2]: < 6.00
pIC50 [3]: 8.10

C[C@@H]1CN(c2ccc(C(=O)NS(=O)(=O)c3ccc(NC[C@H]4COCCO4)c([N+](=O)[O-])c3)c(Oc3cnc4[nH]ccc4c3)c2)CCN1CC1=C(c2ccc(Cl)cc2)CC(C)(C)C(C)(C)C1 [Example 42, N-((4-((((S)-1,4-dioxan-2-yl)methyl)amino)-3-nitrophenyl)sulfonyl)-2-((1H-pyrrolo[2,3-b]pyridin-5-yl)oxy)-4-((R)-4-((4′-chloro-4,4,5,5-tetramethyl-3,4,5,6-tetrahydro-[1,1′-biphenyl]-2-yl)methyl)-3-methylpiperazin-1-yl) benzamide]
pIC50 [1]: 8.82
pIC50 [2]: < 6.00
pIC50 [3]: 8.00

C[C@@H]1CN(CC2=C(c3ccc(Cl)cc3)CCC(C)(C)C2)CCN1c1ccc(C(=O)NS(=O)(=O)c2cc(F)c(NCC3CCOCC3)c([N+](=O)[O-])c2)c(Oc2cnc3[nH]ccc3c2)c1 [Example 43, (R)-2-((1H-pyrrolo[2,3-b]pyridin-5-yl)oxy)-4-(4-((4′-chloro-4,4-dimethyl-3,4,5,6-tetrahydro[1,1′-biphenyl]-2-yl)methyl)-2-methylpiperazin-1-yl)-N-((3-fluoro-5-nitro-4--(((tetrahydro-2H-pyran-4-yl)methyl)amino)phenyl)sulfonyl)benzamide]
pIC50 [1]: 8.20
pIC50 [2]: < 6.00
pIC50 [3]: 6.79

C[C@@H]1CN(CC2=C(c3ccc(Cl)cc3)CCC(C)(C)C2)CCN1c1ccc(C(=O)NS(=O)(=O)c2ccc(NC[C@H]3COCCO3)c([N+](=O)[O-])c2)c(Oc2cnc3[nH]ccc3c2)c1 [Example 44, N-((4-((((S)-1,4-dioxan-2-yl)methyl)amino)-3-nitrophenyl)sulfonyl)-2-((1H-pyrrolo[2,3-b]pyridin-5-yl)oxy)-4-((R)-4-((4′-chloro-4,4-dimethyl-3,4,5,6-tetrahydro-[1,1′-biphenyl]-2-yl)methyl)-2-methylpiperazin-1-yl) benzamide]
pIC50 [1]: 8.30
pIC50 [2]: < 6.00
pIC50 [3]: 7.27

C[C@@H]1CN(CC2=C(c3ccc(Cl)cc3)CCC(C)(C)C2)CCN1c1ccc(C(=O)NS(=O)(=O)c2cc(F)c(NC[C@H]3COCCO3)c([N+](=O)[O-])c2)c(Oc2cnc3[nH]ccc3c2)c1 [Example 45, N-((4-((((S)-1,4-dioxan-2-yl)methyl)amino)-3-fluoro-5-nitrophenyl)sulfonyl)-2-((1H-pyrrolo[2,3-b]pyridin-5-yl)oxy)-4-((R)-4-((4′-chloro-4,4-dimethyl-3,4,5,6-tetrahydro-[1,1′-biphenyl]-2-yl)methyl)-2-methylpiperazin-1-yl)benzamide]
pIC50 [1]: 8.37
pIC50 [2]: < 6.00
pIC50 [3]: 7.28

C[C@@H]1CN(CC2=C(c3ccc(Cl)cc3)CC(C)(C)CC2)CCN1c1ccc(C(=O)NS(=O)(=O)c2cc(F)c(NC[C@H]3COCCO3)c([N+](=O)[O-])c2)c(Oc2cnc3[nH]ccc3c2)c1 [Example 46]
pIC50 [1]: 8.96
pIC50 [2]: < 6.00
pIC50 [3]: 7.74

C[C@H]1CN(c2ccc(C(=O)NS(=O)(=O)c3cc(F)c(NC[C@H]4COCCO4)c([N+](=O)[O-])c3)c(Oc3cnc4[nH]ccc4c3)c2)CCN1CC1=C(c2ccc(Cl)cc2)CC(C)(C)CC1 [Example 47, N-((4-((((S)-1,4-dioxan-2-yl)methyl)amino)-3-fluoro-5-nitrophenyl)sulfonyl)-2-((1H-pyrrolo[2,3-b]pyridin-5-yl)oxy)-4-((S)-4-((4′-chloro-5,5-dimethyl-3,4,5,6-tetrahydro-[1,1′-biphenyl]-2-yl)methyl)-3-methylpiperazin-1-yl) benzamide]
pIC50 [1]: < 7.00
pIC50 [2]: < 6.00
pIC50 [3]: 6.31

C[C@H]1CN(c2ccc(C(=O)NS(=O)(=O)c3ccc(NC[C@H]4COCCO4)c([N+](=O)[O-])c3)c(Oc3cnc4[nH]ccc4c3)c2)CCN1CC1=C(c2ccc(Cl)cc2)CC(C)(C)CC1 [Example 48, N-((4-((((S)-1,4-dioxan-2-yl)methyl)amino)-3-nitrophenyl)sulfonyl)-2-((1H-pyrrolo[2,3-b]pyridin-5-yl)oxy)-4-((S)-4-((4′-chloro-5,5-dimethyl-3,4,5,6-tetrahydro-[1,1′-biphenyl]-2-yl)methyl)-3-methylpiperazin-1-yl) benzamide]
pIC50 [1]: 7.20
pIC50 [2]: < 6.00
pIC50 [3]: 6.64

C[C@H]1CN(c2ccc(C(=O)NS(=O)(=O)c3ccc(NC[C@H]4COCCO4)c([N+](=O)[O-])c3)c(Oc3cnc4[nH]ccc4c3)c2)CCN1CC1=C(c2ccc(Cl)cc2)CCC(C)(C)C1 [Example 49, N-((4-((((S)-1,4-dioxan-2-yl)methyl)amino)-3-nitrophenyl)sulfonyl)-2-((1H-pyrrolo[2,3-b]pyridin-5-yl)oxy)-4-((S)-4-((4′-chloro-4,4-dimethyl-3,4,5,6-tetrahydro-[1,1′-biphenyl]-2-yl)methyl)-3-methylpiperazin-1-yl) benzamide]
pIC50 [1]: < 7.00
pIC50 [2]: < 6.00
pIC50 [3]: < 6.30

C[C@H]1CN(c2ccc(C(=O)NS(=O)(=O)c3ccc(NCC4CCOCC4)c([N+](=O)[O-])c3)c(Oc3cnc4[nH]ccc4c3)c2)CCN1CC1=C(c2ccc(Cl)cc2)CC(C)(C)CC1 [Example 50, (S)-2-((1H-pyrrolo[2,3-b]pyridin-5-yl)oxy)-4-(4-((4′-chloro-5,5-dimethyl-3,4,5,6-tetrahydro-[1,1′-biphenyl]-2-yl)methyl)-3-methylpiperazin-1-yl)-N-((3-nitro-4--(((tetrahydro-2H-pyran-4-yl)methyl)amino)phenyl)sulfonyl) benzamide]
pIC50 [1]: < 7.00
pIC50 [2]: < 6.00
pIC50 [3]: < 6.30

C[C@H]1CN(c2ccc(C(=O)NS(=O)(=O)c3ccc(NC[C@@H]4COCCO4)c([N+](=O)[O-])c3)c(Oc3cnc4[nH]ccc4c3)c2)CCN1CC1=C(c2ccc(Cl)cc2)CC(C)(C)CC1 [Example 51, N-((4-((((R)-1,4-dioxan-2-yl)methyl)amino)-3-nitrophenyl)sulfonyl)-2-((1H-pyrrolo[2,3-b]pyridin-5-yl)oxy)-4-((S)-4-((4′-chloro-5,5-dimethyl-3,4,5,6-tetrahydro-[1,1′-biphenyl]-2-yl)methyl)-3-methylpiperazin-1-yl) benzamide]
pIC50 [1]: < 7.00
pIC50 [2]: < 6.00
pIC50 [3]: < 6.30

C[C@@H]1CN(c2ccc(C(=O)NS(=O)(=O)c3ccc(NC[C@@H]4COCCO4)c([N+](=O)[O-])c3)c(Oc3cnc4[nH]ccc4c3)c2)CCN1CC1=C(c2ccc(Cl)cc2)CC(C)(C)CC1 [Example 52, N-((4-((((R)-1,4-dioxan-2-yl)methyl)amino)-3-nitrophenyl)sulfonyl)-2-((1H-pyrrolo [2,3-b]pyridin-5-yl)oxy)-4-((R)-4-((4′-chloro-5,5-dimethyl-3,4,5,6-tetrahydro-[1,1′-biphenyl]-2-yl)methyl)-3-methylpiperazin-1-yl) benzamide]
pIC50 [1]: 8.72
pIC50 [2]: < 6.00
pIC50 [3]: 8.29

C[C@H]1CN(c2ccc(C(=O)NS(=O)(=O)c3ccc(NC[C@@H]4COCCO4)c([N+](=O)[O-])c3)c(Oc3cnc4[nH]ccc4c3)c2)CCN1CC1=C(c2ccc(Cl)cc2)CCC(C)(C)C1 [Example 53, N-((4-((((R)-1,4-dioxan-2-yl)methyl)amino)-3-nitrophenyl)sulfonyl)-2-((1H-pyrrolo[2,3-b]pyridin-5-yl)oxy)-4-((S)-4-((4′-chloro-4,4-dimethyl-3,4,5,6-tetrahydro-[1,1′-biphenyl]-2-yl)methyl)-3-methylpiperazin-1-yl)benzamide]
pIC50 [1]: < 7.00
pIC50 [2]: < 6.00
pIC50 [3]: < 6.30

C[C@@H]1CN(c2ccc(C(=O)NS(=O)(=O)c3ccc(NC[C@@H]4COCCO4)c([N+](=O)[O-])c3)c(Oc3cnc4[nH]ccc4c3)c2)CCN1CC1=C(c2ccc(Cl)cc2)CCC(C)(C)C1 [Example 54, N-((4-((((R)-1,4-dioxan-2-yl)methyl)amino)-3-nitrophenyl)sulfonyl)-2-((1H-pyrrolo[2,3-b]pyridin-5-yl)oxy)-4-((R)-4-((4′-chloro-4,4-dimethyl-3,4,5,6-tetrahydro-[1,1′-biphenyl]-2-yl)methyl)-3-methylpiperazin-1-yl)benzamide]
pIC50 [1]: 7.96
pIC50 [2]: < 6.00
pIC50 [3]: 7.60

C[C@@H]1CN(c2ccc(C(=O)NS(=O)(=O)c3cc(F)c(NC[C@@H]4COCCO4)c([N+](=O)[O-])c3)c(Oc3cnc4[nH]ccc4c3)c2)CCN1CC1=C(c2ccc(Cl)cc2)CC(C)(C)CC1 [Example 55, N-((4-((((R)-1,4-dioxan-2-yl)methyl)amino)-3-fluoro-5-nitrophenyl)sulfonyl)-2-((1H-pyrrolo[2,3-b]pyridin-5-yl)oxy)-4-((R)-4-((4′-chloro-5,5-dimethyl-3,4,5,6-tetrahydro-[1,1′-biphenyl]-2-yl)methyl)-3-methylpiperazin-1-yl)benzamide]
pIC50 [1]: 8.64
pIC50 [2]: < 6.00
pIC50 [3]: 8.24
